Measurements taken from patent US20070078096A1, “Buffered drug formulations for transdermal electrotransport delivery” (priority 1997, published 2007).
Read-outs that look alike come from different tables or passages of the source. Non-standard residues stand in square brackets, D forms with d. Residues, ends and D or L forms follow the SMILES beside them. Cit = NC(=O)NCCC[C@H](N)C(=O)O; Orn = NCCC[C@H](N)C(=O)O

Test: pKa, pI and charge distribution of buffers
Settings: for % salt: fraction of dipeptide carrying a net charge in aqueous solution at pH equal to pI
Text: At the pI, three species coexist.
In an electric field these negative species move in the opposite direction of their positive associated counterions.
Choice of the dipeptide buffer will be on a case-by-case basis depending on the drug compound and the desired level of pH control and conductivity of the formulation.

Compound	pka A	pI (Table 2)	% salt [%]	pka B	pI	species presenting a net charge (salt form) at the pI (at pI)
C[C@H](N)C(=O)N[C@@H](Cc1cnc[nH]1)C(=O)O [Ala-His] (H-Ala-His-OH)	2.42	7.55	22	–	–	–
Cn1cncc1C[C@H](NC(=O)CCN)C(=O)O [Anserine]	2.64	8.27	10	–	–	–
NC(N)=NCCC[C@H](N)C(=O)N[C@@H](CC(=O)O)C(=O)O [Arg-Asp] (H-Arg-Asp-OH)	–	6.08	2	–	–	–
NC(N)=NCCC[C@H](N)C(=O)N[C@@H](CCC(=O)O)C(=O)O [Arg-Glu] (H-Arg-Glu-OH)	–	6.06	3	–	–	–
NC(=O)C[C@H](N)C(=O)N[C@@H](Cc1cnc[nH]1)C(=O)O [Asn-His] (H-Asn-His-OH)	2.42	7.00	44	–	–	–
N[C@@H](CC(=O)O)C(=O)N[C@@H](CC(=O)O)C(=O)O [Asp-Asp] (H-Asp-Asp-OH)	–	3.05	43	8.26	–	–
N[C@@H](CC(=O)O)C(=O)N[C@@H](Cc1cnc[nH]1)C(=O)O [Asp-His] (H-Asp-His-OH)	–	4.90	3	–	–	–
NCCC(=O)N[C@@H](Cc1c[nH]cn1)C(=O)O [Beta-Alanylhistidine]	–	7.70	16	–	–	–
NCCC(=O)N[C@@H](Cc1cnc[nH]1)C(=O)O [Carnosine]	–	8.17	8	–	–	–
NC(=O)NCCC[C@H](N)C(=O)N[C@@H](Cc1c[nH]cn1)C(=O)O [Citrulline-His] (H-[Cit]-His-OH)	2.42	7.30	32	–	–	–
NC(=O)CC[C@H](N)C(=O)N[C@@H](Cc1cnc[nH]1)C(=O)O [GIn-His] (H-Gln-His-OH)	2.42	7.20	36	–	–	–
NC(N)=NCCC[C@H](NC(=O)[C@@H](N)CCC(=O)O)C(=O)O [Glu-Arg] (H-Glu-Arg-OH)	–	6.00	2	–	–	–
N[C@@H](CCC(=O)O)C(=O)N[C@@H](Cc1cnc[nH]1)C(=O)O [Glu-His] (H-Glu-His-OH)	–	5.20	5	–	5.2	about 5%
NCC(=O)N[C@@H](CC(=O)O)C(=O)O [Gly-Asp] (H-Gly-Asp-OH)	–	3.60	23	8.60	–	–
NC(=O)C[C@H](NC(=O)[C@@H](N)Cc1cnc[nH]1)C(=O)O [His-Asn] (H-His-Asn-OH)	2.62	6.95	22	–	–	–
NC(=O)NCCC[C@H](NC(=O)[C@@H](N)Cc1c[nH]cn1)C(=O)O [His-Citrulline] (H-His-[Cit]-OH)	3.05	6.95	22	–	–	–
NC(=O)CC[C@H](NC(=O)[C@@H](N)Cc1cnc[nH]1)C(=O)O [His-Gln] (H-His-Gln-OH)	2.93	6.95	22	–	–	–
N[C@@H](Cc1cnc[nH]1)C(=O)N[C@@H](Cc1cnc[nH]1)C(=O)O [His-His]	2.25	7.40	32	–	–	–
NCC(O)CC[C@H](NC(=O)[C@@H](N)Cc1c[nH]cn1)C(=O)O (stereo partly shown) [His-Hydroxylysine]	3.05	8.75	17	–	–	–
N[C@@H](Cc1c[nH]cn1)C(=O)N1CC(O)C[C@H]1C(=O)O (stereo partly shown) [His-Hydroxyproline]	2.42	6.95	22	–	–	–
CC[C@H](C)[C@H](NC(=O)[C@@H](N)Cc1cnc[nH]1)C(=O)O [His-Isoleucine] (H-His-Ile-OH)	3.13	6.95	22	–	–	–
CC(C)C[C@H](NC(=O)[C@@H](N)Cc1cnc[nH]1)C(=O)O [His-Leu] (H-His-Leu-OH)	3.10	6.95	22	–	–	–
NCCCC[C@H](NC(=O)[C@@H](N)Cc1cnc[nH]1)C(=O)O [His-Lys] (H-His-Lys-OH)	3.05	9.40	5	–	–	–
CSCC[C@H](NC(=O)[C@@H](N)Cc1cnc[nH]1)C(=O)O [His-Met] (H-His-Met-OH)	2.89	6.95	22	–	–	–
NCCC[C@H](NC(=O)[C@@H](N)Cc1c[nH]cn1)C(=O)O [His-Ornithine] (H-His-[Orn]-OH)	2.82	9.40	5	–	–	–
N[C@@H](Cc1cnc[nH]1)C(=O)N[C@@H](Cc1ccccc1)C(=O)O [His-Phe] (H-His-Phe-OH)	2.88	6.95	22	–	–	–

Compound	pka A	pI (Table 2)	% salt [%]	pka B	pI	species presenting a net charge (salt form) at the pI (at pI)
N[C@@H](Cc1cnc[nH]1)C(=O)N1CCC[C@H]1C(=O)O [His-Pro]	2.62	6.95	22	–	–	–
N[C@@H](Cc1cnc[nH]1)C(=O)N[C@@H](CO)C(=O)O [His-Ser] (H-His-Ser-OH)	2.65	6.95	22	–	–	–
C[C@@H](O)[C@H](NC(=O)[C@@H](N)Cc1cnc[nH]1)C(=O)O [His-Thr] (H-His-Thr-OH)	2.98	6.95	22	–	–	–
N[C@@H](Cc1cnc[nH]1)C(=O)N[C@@H](Cc1c[nH]c2ccccc12)C(=O)O [His-Trp]	3.07	6.95	22	–	–	–
N[C@@H](Cc1cnc[nH]1)C(=O)N[C@@H](Cc1ccc(O)cc1)C(=O)O [His-Tyr] (H-His-Tyr-OH)	–	6.95	22	–	–	–
CC(C)[C@H](NC(=O)[C@@H](N)Cc1cnc[nH]1)C(=O)O [His-Val] (H-His-Val-OH)	3.18	6.95	22	–	–	–
NC[C@H](O)CC[C@H](N)C(=O)N[C@@H](Cc1c[nH]cn1)C(=O)O [Hydroxylysine-His]	2.42	8.60	13	–	–	–
O=C(O)[C@H](Cc1c[nH]cn1)NC(=O)[C@@H]1CC(O)CN1 (stereo partly shown) [Hydroxyproline-His]	2.42	7.45	25	–	–	–
CC[C@H](C)[C@H](N)C(=O)N[C@@H](Cc1cnc[nH]1)C(=O)O [Isoleucine-His] (H-Ile-His-OH)	2.42	7.44	25	–	–	–
CC(C)C[C@H](N)C(=O)N[C@@H](Cc1cnc[nH]1)C(=O)O [Leu-His] (H-Leu-His-OH)	2.42	7.50	24	–	–	–
NCCCC[C@H](N)C(=O)N[C@@H](Cc1cnc[nH]1)C(=O)O [Lys-His]	2.42	9.50	5	–	–	–
CSCC[C@H](N)C(=O)N[C@@H](Cc1cnc[nH]1)C(=O)O [Met-His] (H-Met-His-OH)	2.42	7.35	30	–	–	–
NCCC[C@H](N)C(=O)N[C@@H](Cc1c[nH]cn1)C(=O)O [Ornithine-His]	2.42	9.20	3	–	–	–
N[C@@H](Cc1ccccc1)C(=O)N[C@@H](Cc1cnc[nH]1)C(=O)O [Phe-His] (H-Phe-His-OH)	2.42	7.20	36	–	–	–
O=C(O)C(Cc1cnc[nH]1)NC(=O)C1CCCN1 (stereo not shown) [Pro-His]	2.42	7.90	11	–	–	–
N[C@@H](CO)C(=O)N[C@@H](Cc1cnc[nH]1)C(=O)O [Ser-His] (H-Ser-His-OH)	2.42	7.20	36	–	–	–
C[C@@H](O)[C@H](N)C(=O)N[C@@H](Cc1cnc[nH]1)C(=O)O [Thr-His] (H-Thr-His-OH)	2.42	7.15	39	–	–	–
N[C@@H](Cc1c[nH]c2ccccc12)C(=O)N[C@@H](Cc1cnc[nH]1)C(=O)O [Trp-His] (H-Trp-His-OH)	2.42	7.30	32	–	–	–
NC(N)=NCCC[C@H](NC(=O)[C@@H](N)Cc1ccc(O)cc1)C(=O)O [Tyr-Arg]	–	8.40	17	–	–	–
N[C@@H](Cc1ccc(O)cc1)C(=O)N[C@@H](Cc1cnc[nH]1)C(=O)O [Tyr-His] (H-Tyr-His-OH)	–	7.15	39	–	–	–
Gly-Gly-Gly-Gly-His (GGGGH; printed: Gly-Gly-Gly-Gly-His)	–	–	–	–	7.55	–
Gly-Gly-Gly-His (GGGH; printed: Gly-Gly-Gly-His)	–	–	–	–	7.5	–
Gly-Gly-His	–	–	–	–	7.5	–
His-Gly-Gly	–	–	–	–	6.9	–
His-Gly-Gly-Gly (HGGG; printed: His-Gly-Gly-Gly)	–	–	–	–	6.9	–
His-Gly-Gly-Gly-Gly (HGGGG; printed: His-Gly-Gly-Gly-Gly)	–	–	–	–	6.0	–
